Laboratory results reported in US20250214966A1, “Crystalline Salt Form Of A SHP2 Inhibitor” (Array BioPharma Inc., priority 2022, published 2025).
Counter-ions that a name gives are not always drawn. Like-named read-outs stand apart in the source and are kept apart here.

Legend:
Assay type in all cases: physicochemical
[1] = Grinding assessment of form and crystallinity
[2] = Solubility of salts in buffer systems at 37° C. (Table 14); settings: thermodynamic from solid, 20 mg in 1 mL
Method: The solubility (Table 14) was determined by adding 20 mg of salts (Examples 3 to 8) into 3 HPLC vials, to each vial, a magnetic stirrer bar was added along with 1 mL of the appropriate buffer system (pH 1.2 HCl, pH 4.5 sodium acetate, or pH 6.8 phosphate). The samples were agitated at 37° C. for […]. After 24 hours, the slurries were isolated by centrifugation filtration and isolated mother liquors were analyzed by HPLC.
HPLC method (Table 14): A Dionex Ultimate 3000 HPLC instrument was used with a Waters XSelect HSS T3 Column (100 angstrom, 4.6×150 mm, 5 μm). The column temperature was set to 20° C., the UV wavelength set to 254 nm, the injection volume was 10 μL, with a flow rate of 1.0 mL/min. 10 mM ammonium acetate adjusted to pH 4.8 was used as a mobile phase A, and acetonitrile was used as mobile phase B. The gradient method was set up to achieve 15% mobile phase B at 0 minutes, 95% mobile phase B at 17 minutes—held until 22 minutes, 15% mobile phase B at 22.1 minutes—held until 28 minutes.

[3] = TGA/DSC of salts (Table 14); settings: 10° C./min
Method: TGA/DSC (Table 14): Approximately, 5-10 mg of material was added into a pre-tared open aluminum pan and loaded into a TA Instruments Discovery SDT 650 Auto—Simultaneous DSC and held at room temperature. The sample was then heated at a rate of 10° C./min from 20° C. (ambient) to 400° C. during which time the change in sample weight was recorded along with the heat flow response (DSC). Nitrogen was used as the sample purge gas, at a flow rate of 200 cm3/min.
DSC (Table 14): Approximately, 1-5 mg of material was weighed into an aluminum DSC pan and sealed nonhermetically with an aluminum lid. The sample pan was then loaded into a TA Instruments Discovery DSC 2500 differential scanning calorimeter equipped with a RC90 cooler. The sample and reference were heated to 310° C. at a scan rate of 10° C./min and the resulting heat flow response monitored. The sample was re-cooled to 20° C. and then reheated again to 205° C. all at 10° C./min. Nitrogen was used as the purge gas, at a flow rate of 50 cm^3/min.

[4] = Dynamic vapor sorption of salts (Table 14); settings: 25° C.
Method: DVS (Table 14): Approximately, 10-20 mg of sample was placed into a mesh vapor sorption balance pan and loaded into a DVS Intrinsic dynamic vapor sorption balance by Surface Measurement Systems. The sample was subjected to a ramping profile from 40-90% relative humidity (RH) at 10% increments, maintaining the sample at each step until a stable weight had been achieved (dm/dt 0.004%, minimum step length 30 minutes, maximum step length 500 minutes) at 25° C. After completion of the sorption cycle, the sample was dried using the same procedure to 0% RH and then a second sorption cycle back to 40% RH. Two cycles were performed. Theweight change during the sorption/desorption cycles were plotted, allowing for the hygroscopic nature of the sample to be determined. XRPD analysis was then carried out on any solid retained. […] The sample was subjected to a ramping profile from 40-90% relative humidity (RH) at 10% increments, maintaining the sample at each step until a stable weight had been achieved (dm/dt 0.004%, minimum step length 30 minutes, maximum step length 500 minutes) at 25° C. After completion of the sorption cycle, the sample was dried using the same procedure to 0% RH and then a second sorption cycle back to 40% RH. Two cycles were performed. The weight change during the sorption/desorption cycles were plotted, allowing for the hygroscopic nature of the sample to be determined. XRPD analysis was then carried out on any solid retained.

SMILES | Grinding Assessment [1] | solubility at 18 h ([2]; pH 1.2 HCl buffer, simulated gastric fluid, pH 1.2 HCl, read-out: Solubility pH 1.2 HCl) [µg/mL] | solubility at 18 h ([2]; pH 4.5 sodium acetate buffer, aqueous buffer, pH 4.5 sodium acetate, read-out: Solubility pH 4.5 Sodium Acetate) [µg/mL] | solubility at 18 h ([2]; pH 6.8 phosphate buffer, aqueous buffer, pH 6.8 phosphate, read-out: Solubility Ph 6.8 Phosphate) [µg/mL] | TGA/DSC Melt/degradation [3] [°C] | DVS hygroscopic nature [4] | DVS Wt. ([4]; up to 70% RH, possible hydration above 70% RH)
Nc1nccc(Sc2cnc(N3CCC4(CC3)Cc3ccccc3[C@H]4N)nn2)c1Cl.Nc1nccc(Sc2cnc(N3CCC4(CC3)Cc3ccccc3[C@H]4N)nn2)c1Cl.O [Example 2, (S)-1′-(6-((2-amino-3-chloropyridin-4-yl)thio)-1,2,4-triazin-3-yl)-1,3-dihydrospiro[indene-2,4′-piperidin]-1-amine Free Base Hemihydrate (Form 1)] | No change in form or crystallinity | – | – | – | – | – | –
Nc1nccc(Sc2cnc(N3CCC4(CC3)Cc3ccccc3[C@H]4N)nn2)c1Cl [Example 3, (S)-1′-(6-((2-amino-3-chloropyridin-4-yl)thio)-1,2,4-triazin-3-yl)-1,3-dihydrospiro[indene-2,4′-piperidin]-1-amine Mono Succinate Salt Form 1] | Reduction in crystallinity | > 20000 | 200 | 1300 | 197.3 | Slightly | hygroscopic 0.7%
